Values after ≈ are worked out from the molar mass of the structure shown.
Assays:
[1] = target: T1, Nuclear receptor ROR-gamma (Homo sapiens) (UniProt P51449); assay: (§1) Transrepression of recombinant human GAL4-DBD fused RORgammat LBD expressed in HEK293 cells after 20 hrs by luciferase reporter gene assay; format: cell-based
T1 sequence (whole entry): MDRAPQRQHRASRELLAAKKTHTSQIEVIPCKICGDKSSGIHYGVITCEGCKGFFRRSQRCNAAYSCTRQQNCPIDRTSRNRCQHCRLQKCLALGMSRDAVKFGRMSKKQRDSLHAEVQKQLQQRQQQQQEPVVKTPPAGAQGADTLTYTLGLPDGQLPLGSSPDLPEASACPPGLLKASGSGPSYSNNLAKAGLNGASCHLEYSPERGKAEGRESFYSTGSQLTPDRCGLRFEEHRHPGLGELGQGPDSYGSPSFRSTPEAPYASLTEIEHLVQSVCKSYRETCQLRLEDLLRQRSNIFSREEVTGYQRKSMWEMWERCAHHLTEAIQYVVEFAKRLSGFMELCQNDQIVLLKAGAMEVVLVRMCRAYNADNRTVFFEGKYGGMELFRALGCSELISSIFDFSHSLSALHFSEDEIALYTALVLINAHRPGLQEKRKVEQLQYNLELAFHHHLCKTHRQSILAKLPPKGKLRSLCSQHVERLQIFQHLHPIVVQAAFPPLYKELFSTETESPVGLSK

[2] = target: T2, Nuclear receptor ROR-gamma (Homo sapiens, UniProt P51449); assay: as §1; format: cell-based
T2 sequence (P51449 whole entry): T1 sequence (whole entry)

[3] = target: T3, Nuclear receptor ROR-gamma (Mus musculus, UniProt P51450); assay: Transrepression of RORgammat in anti-CD3/CD28 stimulated C57BL/6 mouse CD4-positive T cells assessed as suppression of T cell differentiation to Th17 cells by measuring reduction in IL-17A level after 4 days by ELISA
T3 sequence (P51450 whole entry): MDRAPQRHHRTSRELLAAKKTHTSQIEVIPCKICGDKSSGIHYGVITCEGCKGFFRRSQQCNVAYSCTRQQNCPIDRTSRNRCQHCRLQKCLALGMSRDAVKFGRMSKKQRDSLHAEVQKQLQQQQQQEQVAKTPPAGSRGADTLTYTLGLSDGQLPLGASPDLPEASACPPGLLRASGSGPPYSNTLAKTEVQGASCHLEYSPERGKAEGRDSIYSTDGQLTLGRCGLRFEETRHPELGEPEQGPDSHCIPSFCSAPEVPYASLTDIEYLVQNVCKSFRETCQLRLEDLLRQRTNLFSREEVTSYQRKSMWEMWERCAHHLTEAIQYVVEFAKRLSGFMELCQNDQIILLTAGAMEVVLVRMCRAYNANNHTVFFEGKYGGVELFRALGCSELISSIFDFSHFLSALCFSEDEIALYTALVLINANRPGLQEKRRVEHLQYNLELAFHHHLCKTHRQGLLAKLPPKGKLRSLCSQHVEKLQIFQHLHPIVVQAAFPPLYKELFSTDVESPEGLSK

[4] = Stability in human liver microsomes assessed as parent compound remaining after 2 hrs by LC-MS/MS analysis; format: ADME, microsome; conditions: read-out: Stability
[5] = Solubility of the compound in NaCl/HCl buffer at pH 1.2 by shake-flask method; format: physicochemical
[6] = target: T4, Nuclear receptor ROR-alpha (Homo sapiens, UniProt P35398); assay: Displacement of [3H]T0901317 from recombinant human GST-fused RORalpha LBD after 1 to 4 hrs by microbeta scintillation counting method
T4 sequence (P35398 whole entry): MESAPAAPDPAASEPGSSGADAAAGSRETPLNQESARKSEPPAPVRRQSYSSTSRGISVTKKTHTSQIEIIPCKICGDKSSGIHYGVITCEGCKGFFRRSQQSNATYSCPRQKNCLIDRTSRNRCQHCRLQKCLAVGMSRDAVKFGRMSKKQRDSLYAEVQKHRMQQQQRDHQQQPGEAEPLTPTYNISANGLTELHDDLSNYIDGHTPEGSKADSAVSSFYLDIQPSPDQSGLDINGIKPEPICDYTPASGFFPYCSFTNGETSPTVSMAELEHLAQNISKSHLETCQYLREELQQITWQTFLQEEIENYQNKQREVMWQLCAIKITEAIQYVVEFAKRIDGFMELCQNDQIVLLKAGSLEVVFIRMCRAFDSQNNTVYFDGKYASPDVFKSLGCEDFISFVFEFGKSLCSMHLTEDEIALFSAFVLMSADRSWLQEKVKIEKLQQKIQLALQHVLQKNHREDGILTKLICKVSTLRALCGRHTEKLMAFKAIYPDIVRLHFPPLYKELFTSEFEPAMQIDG

[7] = target: T5, Oxysterols receptor LXR-beta (Homo sapiens, UniProt P55055); assay: Transrepression of recombinant human GAL4-DBD fused LXRbeta LBD expressed in HEK293 cells after 20 hrs by luciferase reporter gene assay; format: cell-based
T5 sequence (P55055 whole entry): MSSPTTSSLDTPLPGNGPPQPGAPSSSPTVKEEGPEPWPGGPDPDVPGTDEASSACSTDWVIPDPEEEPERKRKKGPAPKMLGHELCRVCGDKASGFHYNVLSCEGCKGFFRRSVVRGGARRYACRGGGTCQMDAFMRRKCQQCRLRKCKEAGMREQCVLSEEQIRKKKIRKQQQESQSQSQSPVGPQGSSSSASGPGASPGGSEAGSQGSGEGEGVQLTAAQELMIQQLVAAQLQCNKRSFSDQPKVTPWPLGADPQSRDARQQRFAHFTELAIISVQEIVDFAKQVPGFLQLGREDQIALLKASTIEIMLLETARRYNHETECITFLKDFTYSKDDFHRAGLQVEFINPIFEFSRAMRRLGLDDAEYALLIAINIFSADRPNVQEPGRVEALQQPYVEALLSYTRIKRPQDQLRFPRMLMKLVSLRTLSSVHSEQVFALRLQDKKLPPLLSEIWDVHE

[8] = AUC in rat at 0.5 mg/kg, iv; format: ADME, organism-based; conditions: in vivo
[9] = Volume of distribution at steady state in rat at 0.5 mg/kg, iv; format: ADME, organism-based; conditions: in vivo, read-out: Vdss
[10] = Cmax in rat at 1 mg/kg, po; format: ADME, organism-based; set-up: dose 1 mg/kg, route oral; conditions: in vivo
[11] = AUC in rat at 1 mg/kg, po; format: ADME, organism-based; conditions: in vivo
[12] = Tmax in rat at 1 mg/kg, po; format: ADME, organism-based; conditions: in vivo
[13] = Oral bioavailability in rat at 1 mg/kg; format: ADME, organism-based; conditions: in vivo
[14] = Fraction unbound in rat plasma at 1 mg/kg, po; format: ADME, organism-based

Row | Efficacy [1] | IC50 [2] | IC50 [3] | remaining at 2 h [4] | solubility thermodynamic [5] | IC50 [6] | EC50 [7] | AUC [8] | Vd [9] | Cmax [10] | AUC [11] | Tmax [12] | bioavailability [13] | fraction unbound [14] | SMILES
1 | 100% | 0.029 µM | 0.2 µM | 95% | 29 µM (≈ 15 µg/mL) | > 10 µM | > 30 µM | 1930 ng·h/mL | 1.1 L/kg | 185 ng/mL | 2110 ng·h/mL | 4 h | 54.5% | 0.034 | CCS(=O)(=O)c1ccc(CC(=O)Nc2ccc(C(C)(C)C(=O)Nc3ccc(F)cc3F)c(F)c2)cc1
2 | 95% | 0.025 µM | 0.42 µM | 63% | 26 µM (≈ 13 µg/mL) | > 10 µM | > 30 µM | 986 ng·h/mL | 1.7 L/kg | 85.3 ng/mL | 786 ng·h/mL | 2.5 h | 39.9% | 0.036 | CCS(=O)(=O)c1ccc(CC(=O)Nc2ccc(C(C)(C)C(=O)Nc3ccc(F)cc3)c(F)c2)cc1
3 | 95% | 0.016 µM | 0.068 µM | 82% | 30 µM (≈ 15.3 µg/mL) | > 10 µM | > 30 µM | 556 ng·h/mL | 3.3 L/kg | 33.3 ng/mL | 218 ng·h/mL | 1 h | 19.6% | 0.051 | CCS(=O)(=O)c1ccc(CC(=O)Nc2ccc(C(C)(C)C(=O)Nc3cc(C#N)ccn3)c(F)c2)cc1

Source: ChEMBL document CHEMBL4261613, “Discovery of a potent orally bioavailable retinoic acid receptor-related orphan receptor-gamma-t (RORγt) inhibitor, S18-000003” (Bioorg Med Chem Lett, 2018)
